# According to US20240261422A1, “ANTHRACYCLINE ANTIBODY CONJUGATES” (SEAGEN INC., priority 2021, published 2024):
# Read-outs that look alike come from different tables or passages of the source.
# Tests used:
# [1] = system: L540cy, HL; assay: In vitro growth inhibition (CellTiter-Glo, 96 h), L540cy; assay type: cell-based; details: for IC50: anthracycline free drugs, 96 h, read-out: IC50 (nM) L540cy, HL
# Procedure: (§1) Cell culture of cell lines as listed in Table 2-4 in log-phase growth were seeded in 96-well plates and grown for 24 h in cell culture media containing 150 μL RPMI 1640 supplemented with 20% FBS (see Mol. Cancer Ther., 2016, 15(5), 938-945 and Mol. Cancer Ther., 2018, 17(8), 1752-1760). Serial dilutions of free drugs or antibody-drug conjugates (final concentration between 0.004 nM and 1 μM) in cell culture media were prepared at 4× working concentrations; 50 μL of each dilution was added to the 96-well plates. Following addition of the drug or ADC, the cells were incubated with test articles (free drugs or ADCs) for 4 d at 37° C. After 96 h, growth inhibition was assessed by CellTiter-Glo® (Promega, Madison, WI) and luminescence was measured on a plate reader (brand, model).
# (§2) Cells were treated for 96 hours with anthracycline analogues listed in Table 2, and then assessed for viability as described in the procedures as described above. […] ND denotes value not determined with that assay for the specified compound.
# (§3) ADCs were prepared by full reduction of interchain disulfides to reveal 8-conjugatable cysteines/antibody, and subsequent alkylation with the maleimide-containing drug-linkers (Compounds 14, 18, 21, 24, 29, 32, 33, 34, and 48) according to the procedures described in Mol. Cancer Ther. 2018, 17(8). 1752-1760. Conjugates of antibody cOKT9 were prepared with anthracycline linkers. Cancer cell lines were treated with cOKT9 ADCs (average DAR of 8:1) for 96 h and then assessed for viability. […] ND denotes value not determined with that assay for the specified compound.
# (§4) Anti-CD30 ADCs comprising cAC10 antibody conjugated to drug-linkers 24, 32, 29, 18, 14, and 48 with an average DAR of 4 were prepared for evaluation on a CD30-expressing lymphoma cell line panel. […] Anti-CD30 conjugates bearing the PNU linkers 24, 32, 29, 18, and 14 were active on L540cy, DEL, and Karpas299 lymphoma cell lines, and conjugate 48 was active on L540cy and DEL cell lines, with IC50s ranging from 0.2-4 ng/mL.
# [2] = system: 786-O, MDR + RCC; assay: In vitro growth inhibition (CellTiter-Glo, 96 h), 786-O; assay type: cell-based; details: for IC50: 96 h; for IC50 (ng/mL) 786-O, MDR + RCC: cOKT9 ADCs, average DAR 8, 96 h
# Procedure: as §1, §2, §3
# [3] = system: BxPC3, PancCa; assay: In vitro growth inhibition (CellTiter-Glo, 96 h), BxPC3; assay type: cell-based; details: for IC50: anthracycline free drugs, 96 h, read-out: IC50 (nM) BxPC3, PancCa; for IC50 (ng/mL) BxPC3, PancCa: cOKT9 ADCs, average DAR 8, 96 h
# Procedure: as §1, §2, §3
# [4] = system: L540cy, 786-O, BxPC3, HL60, HL60/RV; details: for change of potency relative to the parent compound: comparison in words; for IC50s of cOKT9 conjugates: 24 h
# [5] = system: HL60, AML; assay: In vitro growth inhibition (CellTiter-Glo, 96 h), HL60; assay type: cell-based; details: for IC50: read-out: IC50 (nM) HL60, AML; for IC50 (ng/mL) HL60, AML: cOKT9 ADCs, average DAR 8, 96 h
# Procedure: as §1, §2, §3
# [6] = system: HL60/RV, MDR + AML; assay: In vitro growth inhibition (CellTiter-Glo, 96 h), HL60/RV; assay type: cell-based; details: for IC50: read-out: IC50 (nM) HL60/RV, MDR + AML; for IC50 (ng/mL) HL60/RV, MDR + AML: cOKT9 ADCs, average DAR 8, 96 h
# Procedure: as §1, §2, §3
# [7] = system: L428, MDR + HL; assay: In vitro growth inhibition (CellTiter-Glo, 96 h), L428; assay type: cell-based; details: cAC10 (anti-CD30) ADCs, average DAR 4
# Procedure: as §1, §4
# [8] = system: DEL, ALCL; assay: In vitro growth inhibition (CellTiter-Glo, 96 h), DEL; assay type: cell-based; details: cAC10 (anti-CD30) ADCs, average DAR 4
# Procedure: as §1, §4
# [9] = system: Karpas299, ALCL; assay: In vitro growth inhibition (CellTiter-Glo, 96 h), Karpas299; assay type: cell-based; details: cAC10 (anti-CD30) ADCs, average DAR 4
# Procedure: as §1, §4
# [10] = system: Ramos, CD30 − NHL; assay: In vitro growth inhibition (CellTiter-Glo, 96 h), Ramos; assay type: cell-based; details: cAC10 (anti-CD30) ADCs, average DAR 4
# Procedure: as §1, §4
# [11] = Homo sapiens, 786-0, anthracycline free drugs, read-out: IC50 (nM) 786-O, MDR + RCC
# [12] = cOKT9 ADCs, average DAR 8, 96 h
# [13] = cAC10 (anti-CD30) ADCs, average DAR 4
# [14] = cOKT9 ADCs DAR 8, result in words
structure (smiles),measurement,setting,value
"COc1cccc2c1C(=O)c1c(O)c3c(c(O)c1C2=O)C[C@@](O)(C(=O)O)C[C@@H]3O[C@H]1C[C@H](N2CCO[C@H](OC)C2)[C@H](O)[C@H](C)O1 [Compound 4, (2S,4S)-2,5,12-trihydroxy-4-(((2R,4S,5S,6S)-5-hydroxy-4-((S)-2-methoxymorpholino)-6-methyltetrahydro-2H-pyran-2-yl)oxy)-7-methoxy-6,11-dioxo-1,2,3,4,6,11-hexahydrotetracene-2-carboxylic acid]",IC50,[1]; L540cy,10 to 100 nM
same,IC50,[2]; [11],10 to 100 nM
same,IC50,"[3]; Homo sapiens, BXPC-3",10 to 100 nM
same,change of potency relative to the parent compound,[4]; free drugs,lost roughly one order of magnitude in potency
"COc1cccc2c1C(=O)c1c(O)c3c(c(O)c1C2=O)C[C@@](O)(C(=O)CO)C[C@@H]3O[C@H]1C[C@H]2[C@H](O[C@@H]3[C@@H](OC)OCCN32)[C@H](C)O1 [Compound 5, PNU-159682, reference compound]",IC50,[1],< 10 nM
same,IC50,"[2]; anthracycline free drugs, read-out: IC50 (nM) 786-O, MDR + RCC",< 10 nM
same,IC50,"[2]; free drug, read-out: IC50 value, 786-0",< 0.004 nM
same,IC50,[3],< 10 nM
same,IC50,"[5]; anthracycline free drugs, 96 h",< 10 nM
same,IC50,"[6]; anthracycline free drugs, 96 h",< 10 nM
same,IC50,"[4]; read-out: IC50 values on the cancer lines tested, free drugs, 96 h, value or range over the cell lines tested",~0.01 nM
"COc1cccc2c1C(=O)c1c(O)c3c(c(O)c1C2=O)C[C@@](O)(C(=O)NCCN)C[C@@H]3O[C@H]1C[C@H]2[C@H](O[C@@H]3[C@@H](OC)OCCN32)[C@H](C)O1 [Compound 9, (2S,4S)—N-(2-aminoethyl)-2,5,12-trihydroxy-7-methoxy-4-(((1S,3R,4aS,9S,9aR,10aS)-9-methoxy-1-methyloctahydro-1H-pyrano[4′,3′:4,5]oxazolo[2,3-c][1,4]oxazin-3-yl)oxy)-6,11-dioxo-1,2,3,4,6,11-hexahydrotetracene-2-carboxamide]",IC50,[1]; L540cy,< 10 nM
same,IC50,[2]; [11],< 10 nM
same,IC50,"[3]; Homo sapiens, BXPC-3",< 10 nM
same,IC50,"[5]; Homo sapiens, HL-60, 96 h",< 10 nM
same,IC50,"[6]; Homo sapiens, HL-60, 96 h",100 to 1000 nM
same,change of potency relative to the parent compound,[4]; free drugs,increased potency in 4 of 5 cell lines
"COc1cccc2c1C(=O)c1c(O)c3c(c(O)c1C2=O)C[C@@](O)(C(=O)NCCOCCOCCOCCOCCNC(=O)CCN1C(=O)C=CC1=O)C[C@@H]3O[C@H]1C[C@H]2[C@H](O[C@@H]3[C@@H](OC)OCCN32)[C@H](C)O1 [Compound 21, (2S,4S)—N-(18-(2,5-dioxo-2,5-dihydro-1H-pyrrol-1-yl)-16-oxo-3,6,9,12-tetraoxa-15-azaoctadecyl)-2,5,12-trihydroxy-7-methoxy-4-(((1S,3R,4aS,9S,9aR,10aS)-9-methoxy-1-methyloctahydro-1H-pyrano[4′,3′:4,5]oxazolo[2,3-c][1,4]oxazin-3-yl)oxy)-6,11-dioxo-1,2,3,4,6,11-hexahydrotetracene-2-carboxamide]","IC50 (ng/mL) L540cy, HL",[1]; [12],A (IC50<10 ng/mL)
same,"IC50 (ng/mL) 786-O, MDR + RCC",[2],A (IC50<10 ng/mL)
same,"IC50 (ng/mL) BxPC3, PancCa",[3],A (IC50<10 ng/mL)
same,"IC50 (ng/mL) HL60, AML",[5],C (100 ng/mL≤IC50<1000 ng/mL)
same,"IC50 (ng/mL) HL60/RV, MDR + AML",[6],D (IC50≥1000 ng/mL)
same,IC50s of cOKT9 conjugates,[4],1 to 150 ng/mL
"COc1cccc2c1C(=O)c1c(O)c3c(c(O)c1C2=O)C[C@@](O)(C(=O)NCCNC(=O)OCc1ccc(NC(=O)[C@H](C)NC(=O)[C@@H](NC(=O)CCN2C(=O)C=CC2=O)C(C)C)cc1)C[C@@H]3O[C@H]1C[C@H]2[C@H](O[C@@H]3[C@@H](OC)OCCN32)[C@H](C)O1 [Compound 24, 4-((S)-2-((S)-2-(3-(2,5-dioxo-2,5-dihydro-1H-pyrrol-1-yl)propanamido)-3-methylbutanamido)propanamido)benzyl (2-((2S,4S)-2,5,12-trihydroxy-7-methoxy-4-(((1S,3R,4aS,9S,9aR,10aS)-9-methoxy-1-methyloctahydro-1H-pyrano[4′,3′:4,5]oxazolo[2,3-c][1,4]oxazin-3-yl)oxy)-6,11-dioxo-1,2,3,4,6,11-hexahydrotetracene-2-carboxamido)ethyl)carbamate]","IC50 (ng/mL) L540cy, HL",[1]; [13],B (1 ng/mL≤IC50<10 ng/mL)
same,"IC50 (ng/mL) L540cy, HL",[1]; [12],A (IC50<10 ng/mL)
same,"IC50 (ng/mL) 786-O, MDR + RCC",[2],B (10 ng/mL≤IC50<100 ng/mL)
same,"IC50 (ng/mL) BxPC3, PancCa",[3],A (IC50<10 ng/mL)
same,"IC50 (ng/mL) HL60, AML",[5],B (10 ng/mL≤IC50<100 ng/mL)
same,activity of cOKT9 conjugates on multidrug resistant HL60/RV,[6]; [14],active
same,"IC50 (ng/mL) HL60/RV, MDR + AML",[6],B (10 ng/mL≤IC50<100 ng/mL)
same,"IC50 (ng/mL) L428, MDR + HL",[7],E (IC50≥500 ng/mL)
same,"IC50 (ng/mL) DEL, ALCL",[8],A (IC50<1 ng/mL)
same,"IC50 (ng/mL) Karpas299, ALCL",[9],B (1 ng/mL≤IC50<10 ng/mL)
same,"IC50 (ng/mL) Ramos, CD30 − NHL",[10],D (100 ng/mL≤IC50<500 ng/mL)
same,IC50s of cOKT9 conjugates,[4],1 to 150 ng/mL
"COc1cccc2c1C(=O)c1c(O)c3c(c(O)c1C2=O)C[C@@](O)(C(=O)NCCNC(=O)CCN1C(=O)C=CC1=O)C[C@@H]3O[C@H]1C[C@H](N2CCO[C@H](OC)C2)[C@H](O)[C@H](C)O1 [Compound 34, (2S,4S)—N-(2-(3-(2,5-dioxo-2,5-dihydro-1H-pyrrol-1-yl)propanamido)ethyl)-2,5,12-trihydroxy-4-(((2R,4S,5S,6S)-5-hydroxy-4-((S)-2-methoxymorpholino)-6-methyltetrahydro-2H-pyran-2-yl)oxy)-7-methoxy-6,11-dioxo-1,2,3,4,6,11-hexahydrotetracene-2-carboxamide]","IC50 (ng/mL) L540cy, HL",[1]; [12],D (IC50≥1000 ng/mL)
same,"IC50 (ng/mL) 786-O, MDR + RCC",[2],D (IC50≥1000 ng/mL)
same,"IC50 (ng/mL) BxPC3, PancCa",[3],D (IC50≥1000 ng/mL)
same,activity of cOKT9 conjugates across the panel of cancer cell lines,[4]; [14],inactive
"COc1cccc2c1C(=O)c1c(O)c3c(c(O)c1C2=O)C[C@@](O)(C(=O)NCCNC(=O)CNC(=O)[C@H](C)NC(=O)[C@@H](NC(=O)CCN1C(=O)C=CC1=O)C(C)C)C[C@@H]3O[C@H]1C[C@H]2[C@H](O[C@@H]3[C@@H](OC)OCCN32)[C@H](C)O1 [Compound 48, (2S,4S)—N-((8S,11S)-15-(2,5-dioxo-2,5-dihydro-1H-pyrrol-1-yl)-11-isopropyl-8-methyl-4,7,10,13-tetraoxo-3,6,9,12-tetraazapentadecyl)-2,5,12-trihydroxy-7-methoxy-4-(((1S,3R,4aS,9S,9aR,10aS)-9-methoxy-1-methyloctahydro-1H-pyrano[4′,3′:4,5]oxazolo[2,3-c][1,4]oxazin-3-yl)oxy)-6,11-dioxo-1,2,3,4,6,11-hexahydrotetracene-2-carboxamide]","IC50 (ng/mL) L540cy, HL",[1]; [13],A (IC50<1 ng/mL)
same,"IC50 (ng/mL) L540cy, HL",[1]; [12],A (IC50<10 ng/mL)
same,"IC50 (ng/mL) 786-O, MDR + RCC",[2],B (10 ng/mL≤IC50<100 ng/mL)
same,"IC50 (ng/mL) BxPC3, PancCa",[3],A (IC50<10 ng/mL)
same,"IC50 (ng/mL) DEL, ALCL",[8],A (IC50<1 ng/mL)
same,IC50s of cOKT9 conjugates,[4],1 to 150 ng/mL
